Twelve compounds from ChEMBL document CHEMBL1201862, “PubChem BioAssay data set” (2004) can be followed below.

Holding throughout (assay): inhibition of tumour cell growth, NCI panel, 48 h
Experiment [1] relates to SK-MEL-5.
The subject of experiment [2] is OVCAR-8.
The test system of experiment [3] is EKVX.
In experiment [4] the test system is NCI-H23.
The subject of experiment [5] is SW-620.
In experiment [6] the test system is SNB-19.
Experiment [7] relates to ACHN.
Experiment [8] concerns HCT-15.
Experiment [9] deals with NCI-H460.
In experiment [10] the test system is A498.
The subject of experiment [11] is MOLT-4.
The test system of experiment [12] is SK-MEL-28.
Experiment [13] concerns DMS-114.
The subject of experiment [14] is TK-10.
In experiment [15] the test system is SF-539.
Experiment [16] has as its system SR.
For experiment [17], the system named is NCI-H226.
For experiment [18], the system named is SNB-75.
For experiment [19], the system named is DU-145.
For experiment [20], the system named is MDA-MB-435.

Molecules are shown by their SMILES.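 48-hour exposure; five concentrations; linearly interpolated endpoints. GI50 marks 50% less growth.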 Activity calls are given as the source filed them. No stated cut-off is given here; in the data, active = GI50 up to about 1.1 µM and inactive = higher.

Take `COc1cccc(C2N3CCCCC3[C@@H]3c4[nH]c5ccccc5c4CCN23)c1OC` (stereo partly drawn): the GI50 is 15.8 µM (inactive) in [1]; 16.5 µM (inactive) in experiment [2]; 17.9 µM (inactive) in [3]; 16.9 µM (inactive) in experiment [4]; 17.3 µM (inactive) in experiment [5]; 11.9 µM (inactive) in experiment [6]. Further, the GI50 in experiment [7] is 15.2 µM (inactive); in [8], 17.1 µM; in experiment [9], 19.2 µM (inactive); in experiment [10], 11.4 µM (inactive); in [11], 17.5 µM (inactive); in experiment [12], 16.8 µM (inactive). Further, the values for the GI50 in experiment [13], in [14] and in experiment [15] were 15.5 µM (inactive), 19.3 µM (inactive) and 15 µM (inactive), respectively.
In the case of `CC/C(=N/O)c1ccc2[nH]c3c(C)cc([N+](=O)[O-])c(C)c3c2c1`, the GI50 was 24.4 µM (inactive) in experiment [16]; 57.3 µM (inactive) in [1]; 53.2 µM (inactive) in experiment [2]; > 100 µM (inactive) in [3]; 82.4 µM (inactive) in [4]; 84.7 µM (inactive) in [5]. Also, the GI50 was > 100 µM (inactive) in experiment [6]; 25.1 µM (inactive) in experiment [7]; 51.1 µM in experiment [8]; 39.2 µM (inactive) in experiment [9]; > 100 µM (inactive) in experiment [17]; 29.6 µM (inactive) in experiment [11]. Also, the GI50 in experiment [12] was > 100 µM (inactive); in [13], > 100 µM (inactive); in [14] it was 15.2 µM (inactive); in experiment [15], 51.5 µM (inactive); in experiment [18], 57.3 µM (inactive).
As for `CC1(C)C(=NNC(=S)NN)C(C)(C)C1=NNC(=S)NN`, the GI50 in [1] was 58.5 µM (inactive); in experiment [2], > 100 µM (inactive); in [3] it was > 100 µM (inactive); in experiment [4], > 100 µM (inactive); in experiment [5] it was > 100 µM (inactive); in experiment [6] it was > 100 µM (inactive). The GI50 in experiment [7] is > 100 µM (inactive); in experiment [17] it was 4.9 µM (inactive); in experiment [12], > 100 µM (inactive); in experiment [13], > 100 µM (inactive); in experiment [14] it was > 100 µM (inactive); in [15], > 100 µM (inactive). Further, the GI50 in [18] is 98.4 µM (inactive).
On to `Cc1cc2c(C=O)n[nH]c2c(C#N)c1C`, for which the GI50 in experiment [1] was 32.6 µM (inactive); in experiment [2] it was 43 µM (inactive); in [3], > 100 µM (inactive); in [4], 29.6 µM (inactive); in [5] it was 40.6 µM (inactive); in experiment [6], > 100 µM (inactive). For the same compound, the GI50 was 63.5 µM (inactive) in [7]; 32.4 µM in experiment [8]; 46.6 µM (inactive) in [9]; 29.2 µM (inactive) in experiment [10]; > 100 µM (inactive) in experiment [11]; 48.4 µM (inactive) in [12]. The GI50 in experiment [13] was 26.5 µM (inactive); in experiment [14], > 100 µM (inactive); in [15], 27.7 µM (inactive); in experiment [18] it was 7.43 µM (inactive).
For the compound `Nc1ccc2nc(NCc3ccc(F)cc3)cnc2c1`, the GI50 in experiment [16] is 66.7 µM (inactive); in experiment [1] it was > 100 µM (inactive); in experiment [2] it was > 100 µM (inactive); in experiment [3], > 100 µM (inactive); in experiment [4] it was > 100 µM (inactive); in experiment [5], > 100 µM (inactive). Also, the GI50 in experiment [6] was 44.5 µM (inactive); in experiment [7], > 100 µM (inactive); in experiment [8], > 100 µM; in experiment [9], > 100 µM (inactive); in experiment [17], > 100 µM (inactive); in experiment [11], 50.1 µM (inactive). For the same compound, the GI50 in experiment [12] is > 100 µM (inactive); in experiment [13], 75.5 µM (inactive); in experiment [14], > 100 µM (inactive); in experiment [15], 79.3 µM (inactive); in [18], 29.2 µM (inactive).
Regarding `Cc1cc(O)ccc1C1(c2ccc(F)cc2)OC(=O)c2ccccc21` (stereo not drawn), the GI50 is 13.4 µM (inactive) in experiment [16]; 11.3 µM (inactive) in experiment [1]; 0.413 µM (active) in [2]; 3.18 µM (inactive) in [3]; 0.787 µM (active) in [4]; 12.9 µM (inactive) in [5]. The GI50 in [6] was 4.15 µM (inactive); in experiment [7], 4.17 µM (inactive); in [8], 3.18 µM; in [9], 15.6 µM (inactive); in experiment [17], 2.38 µM (inactive); in experiment [10], 13.6 µM (inactive). The GI50 in experiment [11] was 15.5 µM (inactive); in experiment [12], 13.1 µM (inactive); in experiment [19], 4.61 µM (inactive); in experiment [20] it was 13.8 µM (inactive); in [14] it was 4.01 µM (inactive); in experiment [15], 2.99 µM (inactive). In experiment [18], the GI50 was 1.93 µM (inactive).
In the case of `CCOC(=O)COc1cccc2c1C(=O)CCO2`, the GI50 in experiment [1], in experiment [2], in experiment [3], in [4], in experiment [5] and in [6] was > 100 µM (inactive) each time. For the same compound, the GI50 is > 100 µM (inactive) in experiment [7]; > 100 µM in experiment [8]; > 100 µM (inactive) in experiment [9]; > 100 µM (inactive) in experiment [10]; > 100 µM (inactive) in experiment [11]; > 100 µM (inactive) in experiment [12]. For the same compound, the GI50 in experiment [13], in experiment [14] and in experiment [15] was > 100 µM (inactive) in each case.
Consider `CCOC(=O)/C(=C/c1ccc(C(=O)OC)cc1)N(CC)CC`, for which the GI50 in experiment [16] is 47.9 µM (inactive); in experiment [1], 37.7 µM (inactive); in experiment [2], 63 µM (inactive); in experiment [3], 35.4 µM (inactive); in experiment [4], 36.6 µM (inactive); in experiment [5], 35.3 µM (inactive). Further, the GI50 in experiment [6] was 54.5 µM (inactive); in experiment [7], 60.5 µM (inactive); in experiment [8] it was 33.3 µM; in experiment [17], 35.1 µM (inactive); in [11], 29.1 µM (inactive); in experiment [12], > 100 µM (inactive). For the same compound, the values for the GI50 in experiment [13], in experiment [14] and in [15] were 32.3 µM (inactive), 71.6 µM (inactive) and 25.3 µM (inactive), respectively.
On to `Nc1ncnc2c1ncn2C1OC(CSC(F)(F)F)C(O)C1O` (stereo not drawn), for which the GI50 in experiment [1], in experiment [2], in experiment [3], in experiment [4], in experiment [5] and in [7] was > 100 µM (inactive) each time. For the same compound, the GI50 is > 100 µM in [8]; > 100 µM (inactive) in experiment [9]; > 100 µM (inactive) in experiment [17]; > 100 µM (inactive) in experiment [10]; > 100 µM (inactive) in experiment [11]; > 100 µM (inactive) in experiment [12]. In addition, the GI50 in experiment [13], in experiment [14], in experiment [15] and in experiment [18] was > 100 µM (inactive) throughout.
`COC(=O)[C@@](C)(COC(=O)C(C)(C)C)NC(=O)OC(C)(C)C`: the GI50 in experiment [16], in experiment [1], in experiment [2], in [3], in experiment [4] and in [5] was > 100 µM (inactive) in each case. In addition, the GI50 in experiment [6] is > 100 µM (inactive); in experiment [7] it was > 100 µM (inactive); in experiment [8] it was > 100 µM; in experiment [9], > 100 µM (inactive); in experiment [17], > 100 µM (inactive); in experiment [10], > 100 µM (inactive). In addition, the GI50 in experiment [11], in experiment [12], in [19], in experiment [20], in experiment [14] and in experiment [15] was > 100 µM (inactive) throughout. Moreover, the GI50 in [18] is > 100 µM (inactive).
For the compound `O=C(CC(=O)c1cccc([N+](=O)[O-])c1)C(=O)Nc1ccccc1`, the GI50 in experiment [1], in experiment [2], in [3], in [4], in [5] and in experiment [6] was > 100 µM (inactive) in each case. The GI50 in experiment [7] is > 100 µM (inactive); in experiment [8], > 100 µM; in experiment [9], > 100 µM (inactive); in experiment [17], > 100 µM (inactive); in experiment [10], > 100 µM (inactive); in experiment [11], > 100 µM (inactive). The GI50 in [12], in experiment [13], in experiment [14], in experiment [15] and in experiment [18] was > 100 µM (inactive) throughout.
Turning to `CCCC(=O)Nc1cc(/C=C/C(=O)N2CC(CCl)c3ccc(N)cc32)n(C)c1` (stereo not drawn), the GI50 in experiment [16] was 0.0242 µM (active); in experiment [1], 0.11 µM (active); in experiment [2] it was 0.267 µM (active); in experiment [3], 0.368 µM (active); in experiment [4], 0.145 µM (active); in experiment [5], 0.29 µM (active). Further, the GI50 in experiment [6] was 0.406 µM (active); in experiment [7], 0.0248 µM (active); in experiment [8], 0.304 µM; in experiment [9], 0.0998 µM (active); in [17] it was 0.282 µM (active); in experiment [10], 0.0223 µM (active). For the same compound, the GI50 was 0.17 µM (active) in experiment [11]; 0.292 µM (active) in experiment [12]; 0.0361 µM (active) in experiment [19]; 0.256 µM (active) in [20]; 0.112 µM (active) in experiment [14]; 0.22 µM (active) in [15]. Also, the GI50 in experiment [18] is 0.388 µM (active).
